Assay results published in the supplement of paper PMC10307832.

Experiments:
Experiment in all cases: relative viability (nuclei count vs DMSO), 5 days (fraction); higher = more cells survive
Trametinib = compound: CC(=O)Nc1cccc(-n2c(=O)n(C3CC3)c(=O)c3c(Nc4ccc(I)cc4F)n(C)c(=O)c(C)c32)c1 [Trametinib]
How it was run: (§1)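 Lung cancer cell lines were seeded into 1536-well plates, kept overnight at 37 °C and pinned with five library-drug doses (not always all listed) spaced by √10. After 5 days, nuclei were Hoechst-stained, imaged at 4× and counted with MetaXpress. Viability is treated-well nuclei over vehicle-well nuclei, taken as a median across plates. Plates needed control CV below 25% and at least one doubling.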

[1] = compound: CN1C=C(C2=CC=CC=C21)/C=C\3/C4=C(C=CC=N4)NC3=O
How it was run: as §1

[2] = compound: CN1C=C(C2=CC=CC=C21)/C=C\3/C4=C(C=CC=N4)NC3=O + Nc1ncn([C@H]2C[C@H](O)[C@@H](CO)O2)c(=O)n1 [Decitabine] (partner 2 µM)
How it was run: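 Lung cancer cell lines were pin-tool dosed in 1536-well plates on the day after seeding, with either a lone drug or a fixed anchor-drug dose plus five library-drug doses (not always all listed) in √10 steps. Nuclei were counted on 4× images after 5 days. Relative viability is the ratio of treated-well to vehicle-well nuclei counts, with each value a median of duplicate plates.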

In the case of UMC-11, the relative viability (Trametinib; 0.0025 µM) is reported as 0.931, the relative viability (Trametinib; 0.007906 µM) is reported as 1.03 and the relative viability (Trametinib; 0.02 µM, anchor plate) is reported as 0.722. For the same cell line, the relative viability (Trametinib; 0.025 µM) was 0.658, the relative viability (Trametinib; 0.07906 µM) was 0.92 and the relative viability (Trametinib; 0.25 µM) was 0.985. The relative viability ([1]; 0.02 µM) was 0.876, the relative viability ([1]; 0.06325 µM) was 0.884 and the relative viability ([1]; 0.2 µM) was 0.771. It also gave a relative viability ([1]; 0.6325 µM) of 0.968, a relative viability ([1]; 2 µM) of 1.17 and a relative viability ([2]; first compound 0.02 µM) of 0.604. For the same cell line, the relative viability ([2]; first compound 0.06325 µM) was 0.631, the relative viability ([2]; first compound 0.2 µM) was 0.497 and the relative viability ([2]; first compound 0.6325 µM) was 0.395. The relative viability ([2]; first compound 2 µM) was 0.646.
